The results in this text go back to US8044198B2, “Sirtuin modulating compounds” (Sirtris Pharmaceuticals, Inc., priority 2005, dated 2011).

This test has as its target T1, SIRT1 (Homo sapiens, UniProt Q96EB6).
T1 sequence (Q96EB6 1-747): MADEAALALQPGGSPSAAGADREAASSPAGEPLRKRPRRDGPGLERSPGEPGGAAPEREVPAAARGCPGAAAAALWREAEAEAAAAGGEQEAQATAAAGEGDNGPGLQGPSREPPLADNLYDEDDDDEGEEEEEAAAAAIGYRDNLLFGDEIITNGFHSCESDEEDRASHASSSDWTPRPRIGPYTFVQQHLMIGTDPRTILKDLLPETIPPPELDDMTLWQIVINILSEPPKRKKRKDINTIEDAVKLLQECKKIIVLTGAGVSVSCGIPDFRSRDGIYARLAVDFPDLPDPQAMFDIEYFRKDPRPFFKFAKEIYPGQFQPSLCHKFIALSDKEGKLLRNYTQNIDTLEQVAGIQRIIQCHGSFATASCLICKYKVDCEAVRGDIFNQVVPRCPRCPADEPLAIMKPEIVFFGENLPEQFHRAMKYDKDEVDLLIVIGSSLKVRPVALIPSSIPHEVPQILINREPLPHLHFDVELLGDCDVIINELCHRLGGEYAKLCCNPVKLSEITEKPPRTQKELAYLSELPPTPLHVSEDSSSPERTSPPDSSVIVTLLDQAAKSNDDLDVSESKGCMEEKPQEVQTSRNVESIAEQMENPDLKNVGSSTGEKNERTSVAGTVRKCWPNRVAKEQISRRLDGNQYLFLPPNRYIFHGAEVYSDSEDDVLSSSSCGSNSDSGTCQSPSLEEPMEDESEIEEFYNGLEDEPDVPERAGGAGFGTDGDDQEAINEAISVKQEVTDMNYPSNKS
Description: SIRT1 mass spectrometry (MS) based deacetylation assay. As to FOLD ACT. MS: test concentration or dose not given here. It counts as biochemical. The settings on record: for EC50: SIRT1 activation, mass spectrometry assay, read-out: ED50 MS ASSAY; for FOLD ACT. MS: fold activation of SIRT1, mass spectrometry assay.

A value given as a limit tells only on which side of the number the result lay.

As for `O=C(Nc1cccc(-c2nc3ccncc3s2)c1)c1cccnc1Cl` [Compound 222], the EC50 is 5 to 50 µM and the “FOLD ACT. MS” value is given as “B (B (Fold Activation <250%))”.

In the case of `O=C(Nc1cccc(-c2nc3ccncc3s2)c1)c1cccs1` [Compound 223], the EC50 was below 5 µM and the “FOLD ACT. MS” value was “B (B (Fold Activation <250%))”. Turning to `Cc1cc(C(=O)Nc2cccc(-c3nc4ccncc4s3)c2)n(C(C)(C)C)n1` [Compound 228], the EC50 lay within 5 to 50 µM and the “FOLD ACT. MS” value is recorded as “A (A (Fold activation >250%))”. Taken in the same sequence, the figures for `O=C(Nc1cccc(-c2nc3ccncc3s2)c1)c1ccc(-c2ccccc2)o1` [Compound 241] were below 5 µM and “B (B (Fold Activation <250%))”. Taken in the same sequence, the figures for `O=C(Nc1cccc(-c2nc3ccncc3s2)c1)c1ccccc1Oc1ccccc1` [Compound 245] were below 5 µM and “B (B (Fold Activation <250%))”. On to `Cn1nc(C(C)(C)C)cc1C(=O)Nc1cccc(-c2nc3ccncc3s2)c1` [Compound 246], for which the EC50 is below 5 µM and the “FOLD ACT. MS” value is reported as “B (B (Fold Activation <250%))”. The corresponding values for `O=C(Nc1cccc(-c2nc3ccncc3s2)c1)c1cc(C(F)(F)F)ccc1C(F)(F)F` [Compound 248] are 5 to 50 µM and “B (B (Fold Activation <250%))”. The corresponding values for `COc1ccc(C(=O)Nc2ccccc2-c2cc3ccccc3[nH]2)cc1OC` [Compound 254] are below 5 µM and “B (B (Fold Activation <250%))”. The corresponding values for `COc1cc(C(=O)Nc2ccccc2-c2cc3ccccc3[nH]2)cc(OC)c1OC` [Compound 255] are below 5 µM and “B (B (Fold Activation <250%))”. For the compound `COC(=O)c1ccc(-n2cncn2)c(NC(=O)c2ccc(OC)c(OC)c2)c1` [Compound 258], the EC50 was in the range of 5 to 50 µM and the “FOLD ACT. MS” value was “B (B (Fold Activation <250%))”. Taken in the same sequence, the figures for `COc1cc(C(=O)Nc2cccc(-c3nc4ccccc4[nH]3)n2)cc(OC)c1OC` [Compound 259] were below 5 µM and “A (A (Fold activation >250%))”. The corresponding values for `COc1ccc(C(=O)Nc2cccc(-c3nc4ccccc4[nH]3)n2)cc1OC` [Compound 260] are below 5 µM and “A (A (Fold activation >250%))”. The corresponding values for `COc1ccc(C(=O)Nc2ccc(-c3nc4ccccc4[nH]3)cc2)c(OC)c1` [Compound 262] are below 5 µM and “B (B (Fold Activation <250%))”. As for `COc1cc(C(=O)Nc2ccc(-c3nc4ccccc4[nH]3)cc2)cc(OC)c1OC` [Compound 263], the EC50 was in the range of 5 to 50 µM and the “FOLD ACT. MS” value is given as “B (B (Fold Activation <250%))”. The corresponding values for `COc1ccc(C(=O)Nc2ccccc2-c2cn3ccccc3n2)c(OC)c1` [Compound 265] are 5 to 50 µM and “B (B (Fold Activation <250%))”. Regarding `COc1ccc(C(=O)Nc2ccccc2-c2cn3ccccc3n2)cc1OC` [Compound 266], the EC50 is below 5 µM and the “FOLD ACT. MS” value was “A (A (Fold activation >250%))”. In the case of `COc1cc(C(=O)Nc2ccccc2-c2cn3ccccc3n2)cc(OC)c1OC` [Compound 267], the EC50 is below 5 µM and the “FOLD ACT. MS” value is reported as “B (B (Fold Activation <250%))”. The corresponding values for `CN(C)c1cccc(C(=O)Nc2ccccc2-c2cn3ccccc3n2)c1` [Compound 268] are below 5 µM and “B (B (Fold Activation <250%))”. The corresponding values for `COc1ccc(C(=O)Nc2ccccc2-c2cn3cc(CN4CCNCC4)sc3n2)cc1OC` [Compound 270] are 5 to 50 µM and “A (A (Fold activation >250%))”. As for `COc1cc(C(=O)Nc2ccccc2-c2cn3cc(CN4CCNCC4)sc3n2)cc(OC)c1OC` [Compound 271], the EC50 was below 5 µM and the “FOLD ACT. MS” value is reported as “A (A (Fold activation >250%))”. As to `COc1ccc(C(=O)Nc2cccc(-c3nc4cnccc4s3)c2)c(OC)c1` [Compound 272], the EC50 is below 5 µM and the “FOLD ACT. MS” value is reported as “B (B (Fold Activation <250%))”. The corresponding values for `COc1cc(C(=O)Nc2cccc(-c3nc4cnccc4s3)c2)cc(OC)c1OC` [Compound 273] are 5 to 50 µM and “A (A (Fold activation >250%))”.

For `COc1ccc(C(=O)Nc2ncccc2-c2nc3ccccc3[nH]2)cc1OC` [Compound 276], the EC50 was below 5 µM and the “FOLD ACT. MS” value is listed as “B (B (Fold Activation <250%))”.

Consider `CC(=O)Nc1ccc(S(=O)(=O)Nc2cccc(-c3nc4ccncc4s3)c2)cc1` [Compound 288], for which the EC50 fell in the range of 5 to 50 µM and the “FOLD ACT. MS” value is on record as “B (B (Fold Activation <250%))”.

For `COc1ccc(S(=O)(=O)Nc2cccc(-c3nc4ccncc4s3)c2)cc1OC` [Compound 289], the EC50 was 5 to 50 µM and the “FOLD ACT. MS” value was “B (B (Fold Activation <250%))”. Consider `COc1cc(C(=O)N(C)c2ccccc2-c2nc3ncccc3o2)cc(OC)c1OC` [Compound 292, 3,4,5-Trimethoxy-N-methyl-N-(2-oxazolo[4,5-b]pyridin-2-yl-phenyl)-benzamide], for which the EC50 is above 150 µM. Turning to `COc1cc(C(=O)Nc2ccccc2-c2nc3ccccc3[nH]2)cc(OC)c1OC` [Compound 293], the EC50 was below 5 µM and the “FOLD ACT. MS” value is recorded as “A (A (Fold activation >250%))”. For `COc1ccc(C(=O)Nc2ccc(-c3nc4ccccc4[nH]3)cc2)cc1OC` [Compound 294], the EC50 was below 5 µM and the “FOLD ACT. MS” value is given as “B (B (Fold Activation <250%))”.

For the compound `COc1ccc(C(=O)Nc2cccc(-c3nc4cnccc4o3)c2)c(OC)c1` [Compound 296], the EC50 lay within 5 to 50 µM and the “FOLD ACT. MS” value is “B (B (Fold Activation <250%))”.

Consider `COc1cc(OC)cc(C(=O)Nc2cccc(-c3nc4cnccc4o3)c2)c1` [Compound 297], for which the EC50 fell in the range of 5 to 50 µM and the “FOLD ACT. MS” value is on record as “B (B (Fold Activation <250%))”. The corresponding values for `COc1cc(C(=O)Nc2cccc(-c3nc4cnccc4o3)c2)cc(OC)c1OC` [Compound 298] are 5 to 50 µM and “B (B (Fold Activation <250%))”. For the compound `CN(C)c1ccc(C(=O)Nc2cccc(-c3nc4cnccc4o3)c2)cc1` [Compound 299], the EC50 lay in the range of 5 to 50 µM and the “FOLD ACT. MS” value is “B (B (Fold Activation <250%))”.

For the compound `Cc1cc(C(=O)Nc2cccc(-c3nc4ccncc4s3)c2)no1` [Compound 304], the EC50 is below 5 µM and the “FOLD ACT. MS” value is “B (B (Fold Activation <250%))”. The corresponding values for `O=C(Nc1cccc(-c2nc3ccncc3s2)c1)c1ccc(Oc2ccccc2)nc1` [Compound 306] are 5 to 50 µM and “B (B (Fold Activation <250%))”. As to `O=C(Nc1cccc(-c2nc3ccncc3s2)c1)c1ccc2ccccc2n1` [Compound 307], the EC50 is below 5 µM and the “FOLD ACT. MS” value was “A (A (Fold activation >250%))”. The corresponding values for `CN(C)c1cccc(C(=O)Nc2cccc(-c3nc4cnccc4o3)c2)c1` [Compound 311] are 5 to 50 µM and “B (B (Fold Activation <250%))”.

Turning to `COc1cc(C(=O)Nc2ccccc2-c2nc3ccccc3n2C)cc(OC)c1OC` [Compound 313], the EC50 lay in the range of 5 to 50 µM and the “FOLD ACT. MS” value was “B (B (Fold Activation <250%))”.

Take `COc1ccc(C(=O)Nc2ccccc2-c2nc3ccccc3n2C)cc1OC` [Compound 314]: the EC50 was in the range of 5 to 50 µM and the “FOLD ACT. MS” value is “B (B (Fold Activation <250%))”. The corresponding values for `COc1ccc(C(=O)Nc2ccccc2-c2nc3cnccc3s2)c(OC)c1` [Compound 317] are below 5 µM and “B (B (Fold Activation <250%))”. The corresponding values for `COc1cc(OC)cc(C(=O)Nc2ccccc2-c2nc3cnccc3s2)c1` [Compound 318] are 5 to 50 µM and “B (B (Fold Activation <250%))”. Take `COc1cc(C(=O)Nc2ccccc2-c2nc3cnccc3s2)cc(OC)c1OC` [Compound 319]: the EC50 was below 5 µM and the “FOLD ACT. MS” value is recorded as “B (B (Fold Activation <250%))”. For `CN(C)c1ccc(C(=O)Nc2ccccc2-c2nc3cnccc3s2)cc1` [Compound 320], the EC50 is below 5 µM and the “FOLD ACT. MS” value is listed as “B (B (Fold Activation <250%))”. On to `CN(C)c1cccc(C(=O)Nc2ccccc2-c2nc3cnccc3s2)c1` [Compound 321], for which the EC50 is below 5 µM and the “FOLD ACT. MS” value is recorded as “B (B (Fold Activation <250%))”. The corresponding values for `COc1cc(OC)cc(C(=O)Nc2ccc(-c3nc4cnccc4s3)cc2)c1` [Compound 323] are 5 to 50 µM and “B (B (Fold Activation <250%))”. On to `COc1ccc(C(=O)Nc2ccccc2-c2cn3c(CN4CCNCC4)csc3n2)c(OC)c1` [Compound 326], for which the EC50 was in the range of 5 to 50 µM and the “FOLD ACT. MS” value was “B (B (Fold Activation <250%))”.

`CN(C)c1cccc(C(=O)Nc2ccccc2-c2cn3c(CN4CCNCC4)csc3n2)c1` [Compound 327]: the EC50 was in the range of 5 to 50 µM and the “FOLD ACT. MS” value is “A (A (Fold activation >250%))”.
